Experimental findings from ChEMBL document CHEMBL1201862, “PubChem BioAssay data set” (2004) are described below.

By GI50 is commonly meant the concentration giving 50% growth inhibition.

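Following 48 hours of exposure in 96-well plates, responses at five concentrations were used to interpolate endpoints linearly. GI50 is the concentration that inhibits growth by half.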 Calls of active or inactive are those of the source. Rule as the data show it: active = GI50 up to about 1.1 µM and inactive = higher.

Among the test systems are TK-10; OVCAR-3; EKVX; Hs-578T; IGROV-1; NCI-H522; NCI-H460; MDA-MB-435; HT-29; SF-539; MDA-MB-231; HCC 2998; SK-OV-3; T47D; OVCAR-5; HCT-15; UACC-257; ACHN; U-251.
Holding throughout (experiment): DTP human tumour cell line panel, 48 h

In the case of `O=[N+]([O-])C(Cl)=C/C(=C(\Cl)SCc1ccccc1)[N+](=O)[O-]`, the GI50 in the assay on TK-10 is 23.7 µM (inactive); in the assay with OVCAR-3, 15.5 µM (inactive); in the assay on EKVX, 17.7 µM (inactive); in the assay with Hs-578T, 53 µM (inactive); in the assay with IGROV-1 it was 28.3 µM (inactive); in the assay with NCI-H522 it was 20.7 µM (inactive). In addition, the GI50 in the assay on NCI-H460 is 28.2 µM (inactive); with MDA-MB-435 it was 18.5 µM (inactive); in the assay on HT-29, 24.7 µM (inactive); in the assay on SF-539, 21 µM (inactive); in the assay on MDA-MB-231 it was 27.7 µM (inactive); with HCC 2998, 30.6 µM (inactive). Also, the GI50 with SK-OV-3 was 59.7 µM (inactive); in the assay on T47D, 16.9 µM (inactive); with OVCAR-5, 23.7 µM (inactive); with HCT-15 it was 18.2 µM; in the assay with UACC-257, 29 µM (inactive); with ACHN, 17 µM (inactive). For the same compound, the GI50 in the assay on U-251 is 16.7 µM (inactive).

In the case of `CSC(SC)=C1CC(=O)Nc2ccccc2C1=O`, the GI50 was 37 µM (inactive) in the assay on TK-10; 45 µM (inactive) in the assay on OVCAR-3; > 100 µM (inactive) in the assay on EKVX; 63.7 µM (inactive) with Hs-578T; 35.9 µM (inactive) with IGROV-1; 57 µM (inactive) with NCI-H522. In addition, the GI50 with NCI-H460 is > 100 µM (inactive); in the assay with MDA-MB-435 it was 44.8 µM (inactive); in the assay on HT-29, > 100 µM (inactive); in the assay on SF-539 it was 58.7 µM (inactive); with MDA-MB-231 it was > 100 µM (inactive); in the assay on HCC 2998 it was > 100 µM (inactive). Further, the GI50 in the assay with SK-OV-3 is > 100 µM (inactive); in the assay on T47D it was 29.9 µM (inactive); with OVCAR-5, > 100 µM (inactive); with HCT-15, 36.1 µM; in the assay on UACC-257 it was 23.6 µM (inactive); in the assay with ACHN it was > 100 µM (inactive). The GI50 with U-251 was 40.3 µM (inactive).

As to `O=S1(=O)N=C(SCc2ccccc2)N(c2ccccc2)c2ccncc21`, the GI50 is 35.7 µM (inactive) in the assay with TK-10; 31.9 µM (inactive) in the assay on OVCAR-3; 24.4 µM (inactive) in the assay with EKVX; 31.7 µM (inactive) in the assay with Hs-578T; 18.7 µM (inactive) in the assay with NCI-H522; 28.8 µM (inactive) in the assay with NCI-H460. The GI50 in the assay on MDA-MB-435 is 41.5 µM (inactive); in the assay with HT-29, 43.9 µM (inactive); in the assay with SF-539 it was 66.2 µM (inactive); in the assay on MDA-MB-231, 68.2 µM (inactive); with HCC 2998, 38.7 µM (inactive); in the assay on SK-OV-3, 38.8 µM (inactive). Further, the GI50 in the assay on T47D was 29.2 µM (inactive); in the assay on OVCAR-5 it was > 100 µM (inactive); in the assay with HCT-15, 26.5 µM; with UACC-257, 31.3 µM (inactive); in the assay on ACHN, 57.7 µM (inactive); in the assay with U-251 it was 39.2 µM (inactive).

`N#Cc1ccccc1NC(=O)C(O)C(O)C(O)C(O)C=O` (stereo not given): the GI50 in the assay with TK-10, in the assay on OVCAR-3, with EKVX, with Hs-578T, with IGROV-1 and in the assay with NCI-H522 was > 100 µM (inactive) each time. Besides, the GI50 in the assay with NCI-H460, with MDA-MB-435, in the assay with HT-29, in the assay with SF-539, with MDA-MB-231 and in the assay on HCC 2998 was > 100 µM (inactive) throughout. In addition, the GI50 with SK-OV-3 is > 100 µM (inactive); in the assay on T47D it was > 100 µM (inactive); in the assay on OVCAR-5, > 100 µM (inactive); in the assay with HCT-15, greater than 100 µM; with UACC-257, > 100 µM (inactive); in the assay on ACHN, > 100 µM (inactive). For the same compound, the GI50 with U-251 was > 100 µM (inactive).
